Measurements published in patent US8933113B2 (Merck Sharp & Dohme Corp., priority 2011, dated 2015).

Target: T1, full-length human Mineralocorticoid Receptor (MR) (Homo sapiens, UniProt P08235)
T1 construct: host or cells: PathHunter CHO-K1 cells
T1 sequence (P08235 1-984): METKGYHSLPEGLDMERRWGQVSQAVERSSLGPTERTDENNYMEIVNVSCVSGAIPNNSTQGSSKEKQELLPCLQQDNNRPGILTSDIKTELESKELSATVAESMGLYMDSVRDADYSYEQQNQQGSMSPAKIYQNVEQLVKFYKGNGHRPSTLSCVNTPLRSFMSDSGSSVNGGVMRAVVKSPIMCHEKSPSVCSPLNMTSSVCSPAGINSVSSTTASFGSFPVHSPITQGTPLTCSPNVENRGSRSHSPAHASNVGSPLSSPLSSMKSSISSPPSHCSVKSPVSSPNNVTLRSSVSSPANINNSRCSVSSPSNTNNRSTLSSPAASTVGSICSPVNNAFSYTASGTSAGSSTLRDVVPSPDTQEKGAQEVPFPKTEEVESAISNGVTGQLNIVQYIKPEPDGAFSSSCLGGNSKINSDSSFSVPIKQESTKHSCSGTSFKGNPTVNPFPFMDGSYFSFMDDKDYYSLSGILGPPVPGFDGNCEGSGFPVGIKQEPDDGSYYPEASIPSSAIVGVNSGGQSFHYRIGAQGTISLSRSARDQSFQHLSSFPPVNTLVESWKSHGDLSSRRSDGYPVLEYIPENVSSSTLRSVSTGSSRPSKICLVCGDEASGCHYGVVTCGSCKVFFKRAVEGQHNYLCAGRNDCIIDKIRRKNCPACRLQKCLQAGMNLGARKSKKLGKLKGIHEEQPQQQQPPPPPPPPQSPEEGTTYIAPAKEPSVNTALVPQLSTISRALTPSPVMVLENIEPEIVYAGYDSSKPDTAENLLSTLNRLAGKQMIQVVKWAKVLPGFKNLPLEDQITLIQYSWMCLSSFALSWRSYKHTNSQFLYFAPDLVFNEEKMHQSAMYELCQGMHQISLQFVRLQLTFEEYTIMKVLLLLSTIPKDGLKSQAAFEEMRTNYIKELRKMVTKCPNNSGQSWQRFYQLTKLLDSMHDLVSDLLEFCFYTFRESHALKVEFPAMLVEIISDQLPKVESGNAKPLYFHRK
Test: human MR NH Pro assay (PathHunter Protein:Protein interaction assay), MR antagonist activity
Assay type: cell-based
Conditions: PathHunter CHO-K1 cells overexpressing human MR; aldosterone about 0.3 nM; 6 hours at 37° C.; luminescence; read-out: Primary Assay IP rating (IP = inflection point for a given dose-response titration curve)
From the text: The activity of the compounds of the present invention regarding mineralocorticoid receptor antagonism can be evaluated using the following assay.
Assessment of MR Potency in HMR NH Pro Assay
The human MR NH Pro assay is a commercially available PathHunter™ Protein:Protein interaction assay (DiscoveRx; http://www.discoverx.com/nhrs/prod-nhrs.php) that measures the ability of compounds to antagonize full-length human Mineralocorticoid Receptor (MR) binding to a coactivator peptide.
6. Test compounds are titrated starting at 4.4 mM, 10-point titration in 1:3 dilution.
3. Add 5 μL 6× agonist (final aldosterone concentration should be about 0.3 nM to about 1.0 nM) to all wells (using the PlateMate Plus.)
• (ThermoFisher) (except those wells in columns 23 and 24) 4. Add 5 uL of assay media to all wells in column 23 and 24. 5. Incubate 6 hrs at 37° C., 5% CO2. 6. Add 15 uL 3× DiscoveRx detection reagent to each well. 7. Incubate 1 hour at room temperature (keep plates stored in the dark). 8. Read plates on Envision (PerkinElmer) luminesence plate reader and analyze using ADA.

Compared with CCC(c1ccc(Cl)cc1)(C(C)O)n1ncc2c(NS(=O)(=O)N(C)C)cccc21 (centres unmarked) [Compound 119, 3-(1-(3-(4-chlorophenyl)-2-hydroxypentan-3-yl)-1H-indazol-4-yl)-1,1-dimethyl-sulfonylurea], CCC(C(C)=O)(c1ccc(Cl)cc1)n1ncc2c(NS(C)(=O)=O)cccc21 (single isomer, unassigned) [Compound 101, N-(1-(3-(4-chlorophenyl)-2-oxopentan-3-yl)-1H-indazol-4-yl)methanesulfonamide] is higher in IC50: under 100 nM for the first, 100 to 500 nM for the second.

First: CCC(CC#N)(c1ccc(Cl)cc1)n1ncc2c(NS(C)(=O)=O)cccc21 (single isomer, unassigned) [Compound 123, N-(1-(2-(4-chlorophenyl)-1-cyanobutan-2-yl)-1H-indazol-4-yl)methanesulfonamide]
Second: CCC(C(=O)OC)(c1ccc(Cl)cc1)n1ncc2c(NS(C)(=O)=O)cccc21 (centres unmarked) [Compound 32, Methyl 2-(4-chlorophenyl)-2-{4-[(methylsulfonyl)amino]-1H-indazol-1-yl}butanoate]
The IC50 of the first is lower: under 100 nM for the first, 100 to 500 nM for the second.

First: CC(C)(C)OC(=O)C(CC#N)(c1ccc(Cl)cc1)n1ccc2c(NS(C)(=O)=O)cccc21 (centres unmarked) [Compound 27, tert-Butyl 2-(4-chlorophenyl)-3-cyano-2-{4-[(methylsulfonyl)amino]-1H-indol-1-yl}propanoate]
Second: CCC(C(=O)NCCC#N)(c1ccc(Cl)cc1)n1ccc2c(NS(C)(=O)=O)cccc21 (centres unmarked) [Compound 48, 2-(4-chlorophenyl)-N-(2-cyanoethyl)-2-{4-[(methylsulfonyl)amino]-1H-indol-1-yl}butanamide]
The IC50 of the first is lower: 100 to 500 nM for the first, 500 to 5000 nM for the second.

CCC(C(=O)NCCF)(c1ccc(Cl)cc1)n1ccc2c(NS(C)(=O)=O)cccc21 (centres unmarked) [Compound 49, 2-(4-chlorophenyl)-N-(2-fluoroethyl)-2-{4-[(methylsulfonyl)amino]-1H-indol-1-yl}butanamide] and CCNC(=O)C(CC)(c1ccc(Cl)cc1)n1ccc2c(NS(C)(=O)=O)cccc21 (centres unmarked) [Compound 46, 2-(4-chlorophenyl)-N-ethyl-2-{4-[(methylsulfonyl)amino]-1H-indol-1-yl}butanamide] fall in the same range of IC50: 100 to 500 nM for the first, 100 to 500 nM for the second.

CCC(C(=O)OC)(c1ccc(Cl)cc1Cl)n1ccc2c(NS(C)(=O)=O)cccc21 (centres unmarked) [Compound 30, Methyl 2-(2,4-dichlorophenyl)-2-{4-[(methylsulfonyl)amino]-1H-indol-1-yl}butanoate] and CC[C@](C(=O)NC(C)C)(c1ccc(Cl)cc1)n1ccc2c(NS(C)(=O)=O)cccc21 [Compound 44, (R)-2-(4-chlorophenyl)-N-(1-methylethyl)-2-{4-[(methylsulfonyl)amino]-1H-indol-1-yl}butanamide] fall in the same range of IC50: 100 to 500 nM for the first, 100 to 500 nM for the second.

CCC(C(=O)OC)(c1ccc(Cl)cc1)n1ccc2c(CCS(C)(=O)=O)cccc21 (centres unmarked) [Compound 153, Methyl 2-(4-chlorophenyl)-2-(4-(2-(methylsulfonyl)ethyl)-1H-indol-1-yl)butanoate] and CCC(c1ccc(Cl)cc1)(C(C)O)n1ccc2c(NS(C)(=O)=O)cccc21 (single isomer, unassigned) [Compound 109, N-(1-(3-(4-chlorophenyl)-2-hydroxypentan-3-yl)-1H-indol-4-yl)methanesulfonamide] cannot be ordered by IC50: under 100 nM for the first, under 100 nM for the second.

Compared with CCC(c1ccc(Cl)cc1)(c1nnc(-c2ccc(C(F)(F)F)cc2)o1)n1ccc2c(NS(C)(=O)=O)cccc21 (centres unmarked) [Compound 73, N-{1-[1-(4-chlorophenyl)-1-{5-[4-(trifluoromethyl)phenyl]-1,3,4-oxadiazol-2-yl}propyl]-1H-indol-4-yl}methanesulfonamide], CCC(c1ccc(Cl)cc1)(c1nnc(-c2ccccc2)o1)n1ccc2c(NS(C)(=O)=O)cccc21 (centres unmarked) [Compound 70, N-{1-[1-(4-chlorophenyl)-1-(5-phenyl-1,3,4-oxadiazol-2-yl)propyl]-1H-indol-4-yl}methanesulfonamide] is higher in IC50: 100 to 500 nM for the first, 500 to 5000 nM for the second.

First: CCC(C1=C(C#N)CCO1)(c1ccc(Cl)cc1)n1ccc2c(NS(C)(=O)=O)cccc21 (centres unmarked) [Compound 147, N-(1-(1-(4-Chlorophenyl)-1-(3-cyano-4,5-dihydrofuran-2-yl)propyl)-1H-indol-4-yl)methane-sulfonamide]
Second: CC[C@](C#N)(c1ccc(Cl)cc1)n1ccc2c(NS(C)(=O)=O)cccc21 [Compound 5a, (R)—N-{1-[1-(4-chlorophenyl)-1-cyanopropyl]-1H-indol-4-yl}methanesulfonamide]
The IC50 of the first is higher: 100 to 500 nM for the first, under 100 nM for the second. The second is the more potent here.

CCC(CCOS(C)(=O)=O)(c1ccc(Cl)cc1)n1ccc2c(NS(C)(=O)=O)cccc21 (centres unmarked) [Compound 164, 3-(4-Chlorophenyl)-3-(4-(methylsulfonamido)-1H-indol-1-yl)pentyl methanesulfonate] and CCC(CCSC)(c1ccc(Cl)cc1)n1ccc2c(NS(C)(=O)=O)cccc21 (centres unmarked) [Compound 166, N-(1-(3-(4-chlorophenyl)-1-(methylthio)pentan-3-yl)-1H-indol-4-yl)methanesulfonamide] cannot be ordered by IC50: under 100 nM for the first, under 100 nM for the second.

COC(=O)C(c1ccc(F)cc1Cl)n1ccc2cccc(F)c21 (centres unmarked) [Compound 15, methyl (2-chloro-4-fluorophenyl)(7-fluoro-1H-indol-1-yl)acetate] and COC(=O)C(c1ccc(F)cc1Cl)n1ccc2cc(C#N)ccc21 (centres unmarked) [Compound 11, methyl (2-chloro-4-fluorophenyl)(5-cyano-1H-indol-1-yl)acetate] fall in the same range of IC50: 500 to 5000 nM for the first, 500 to 5000 nM for the second.

COC(=O)C(c1ccc(Cl)cc1)n1ncc2c(NS(C)(=O)=O)cccc21 (centres unmarked) [Compound 19, methyl (4-chlorophenyl){4-[(methylsulfonyl)amino]-1H-indazol-1-yl}acetate] and CC(C)(C)OC(=O)C(c1ccc(Cl)cc1)n1ccc2c(NS(C)(=O)=O)cccc21 (centres unmarked) [Compound 18, tert-butyl (4-chlorophenyl){4-[(methylsulfonyl)amino]-1H-indol-1-yl}acetate] fall in the same range of IC50: 500 to 5000 nM for the first, 500 to 5000 nM for the second.

Compared with CCC(c1ccc(C(F)(F)F)cc1)(C(C)O)n1ccc2c(NS(C)(=O)=O)cccc21 (single isomer, unassigned) [Compound 114, N-(1-(2-hydroxy-3-(4-(trifluoromethyl)phenyl)pentan-3-yl)-1H-indol-4-yl)methanesulfonamide], CCC(C(C)=O)(c1ccc(C(F)(F)F)cc1)n1ccc2c(NS(C)(=O)=O)cccc21 (single isomer, unassigned) [Compound 102, N-(1-(2-oxo-3-(4-(trifluoromethyl)phenyl)pentan-3-yl)-1H-indol-4-yl)methanesulfonamide] is higher in IC50: under 100 nM for the first, 100 to 500 nM for the second.

Compared with CCC(/C=C/C#N)(c1ccc(Cl)cc1)n1ncc2c(N(C(=O)OC(C)(C)C)S(C)(=O)=O)cccc21 (centres unmarked) [Compound 135, (E)-tert-butyl 1-(3-(4-chlorophenyl)-1-cyanopent-1-en-3-yl)-1H-indazol-4-yl(methylsulfonyl) carbamate], C=CC(CC)(c1ccc(Cl)cc1)n1ccc2c(NS(C)(=O)=O)cccc21 (centres unmarked) [Compound 175, N-(1-(3-(4-chlorophenyl)pent-1-en-3-yl)-1H-indol-4-yl)methanesulfonamide] is higher in IC50: under 100 nM for the first, 100 to 500 nM for the second. The first is the more potent here.

CCC(c1ccc(Cl)cc1)(c1noc(-c2ccc(F)cc2)n1)n1ccc2c(NS(C)(=O)=O)cccc21 (centres unmarked) [Compound 59, N-(1-{1-(4-chlorophenyl)-1-[5-(4-fluorophenyl)-1,2,4-oxadiazol-3-yl]propyl}-1H-indol-4-yl)methanesulfonamide] and CCC(CCC#N)(c1ccc(C(F)(F)F)cc1)n1ncc2c(NS(C)(=O)=O)cccc21 (single isomer, unassigned) [Compound 141, N-(1-(1-cyano-3-(4-(trifluoromethyl)phenyl)pentan-3-yl)-1H-indazol-4-yl)methanesulfonamide] cannot be ordered by IC50: under 100 nM for the first, under 100 nM for the second.

Molecule CCC(CCC#N)(c1ccccc1)n1ncc2c(NS(C)(=O)=O)cc(F)cc21 (centres unmarked) [Compound 144, N-(1-(1-cyano-3-phenylpentan-3-yl)-6-fluoro-1H-indazol-4-yl)methanesulfonamide] has an IC50 of under 100 nM.
